Measurements published in patent publication US20150182550A1, “INHIBITORS OF THE INTERACTION OF THE SIGMA-1 RECEPTOR WITH hERG FOR USE IN THE TREATMENT OF CANCER” (CENTRE NATIONAL DE LA RECHERCHE SCIENTIFIQUE - CNRS, priority 2011, published 2015).

Key:
[1] = tested on: K562 cells; experiment: Adhesion of K562 cells to fibronectin (FN); type: cell-based, human; conditions: for FN-dependent specific cell adhesion: wild-type K562 cells, 10 μM
Text: FIGS. 8A-8B represents the inhibition of the adhesion of K562 cells to FN by igmesine, E-4031 and Sig1R silencing. […] The values represent the mean±standard error of 6 to 9 independent experiments. NS: not significant (Student's t test). […] The values represent the mean±standard error of 12 independent experiments. ***p<0.001 (Student's t test). In one experiment, each value is the mean of three distinct wells.
The role of the Sig1R/hERG interaction on integrin-dependent cell adhesion to the extracellular matrix (ECM) has been tested in vitro. The expression of a single integrin subtype, i.e. integrin α5β1, has been reported in K562 cells. This integrin has a high affinity for fibronectin (FN), a component of the extracellular matrix (ECM). […] In the wild-type cells, the hERG channel blocker (E-4031) and igmesine inhibited FN-dependent specific cell adhesion. […] Likewise, the Sigma ligands no longer have any effect on the adhesion of the shSig1R cells (not represented).

[2] = tested on: hERG channels; experiment: Whole-cell patch-clamp of hERG tail currents in K562 cells; conditions: 10 μM
Experimental: “Patch-clamp” electrophysiology experiments were carried out in the whole cell configuration. […] This protocol makes it possible to record transient inward currents, the amplitude of which correlates with the depolarization involved during the prepulses. […] (FIGS. 1A,B).
In order to verify a potential interaction between Sig1R and hERG, the effects of selective Sig1R ligands, i.e. igmesine and (+)pentazocine were analyzed with respect to the current. […] The effects of igmesine (10 μM) were then studied on I/V curves recorded at from −70 to 40 mV.
Patch-clamp experiments were then carried out in the K562 shRD and shSig1R cell lines in order to analyze the possible consequences of Sig1R silencing on the properties of hERG.

Compound | additive effect on adhesion to FN compared with E-4031 alone ([1]; E4031+igmesine 10 μM each, K562 cells) | FN-dependent specific cell adhesion [1] | hERG current reduced by ([2]; human) | shift towards the left of the half-activation voltage value ([2]; human) | effect of extracellular application on hERG currents ([2]; K562 cells) | hERG current reduced by ([2]; extracellular application, tail current at −120 mV, K562 cells)
CCC(C/C=C/c1ccccc1)(c1ccccc1)N(C)CC1CC1 (stereo not shown) [igmesine] | did not produce an additive effect | inhibited | 40.85±2.83% | ~10 mV |  | 
CC(C)=CCN1CCC2(C)c3cc(O)ccc3CC1C2C (single isomer, unassigned; (+)) [(+)pentazocine] |  |  |  |  | reversibly inhibited | 21.19±1.77%
Cc1cccc(CCN2CCC(C(=O)c3ccc(NS(C)(=O)=O)cc3)CC2)n1 [E-4031] |  | inhibited |  |  |  | 
